Experimental data reported in patent publication US20240335383A1, “NANOPARTICULATE FORMULATION” (NewImmune II, LLC, priority 2021, published 2024).
Like-named read-outs stand apart in the source and are kept apart here.

Key:
[1] = design: species or system human
From the text: The efficacy of the presently disclosed compositions and nanoparticles allows for the administration of relatively low doses.

[2] = 30 mg subcutaneous dose, healthy human volunteers; cited from earlier work
[3] = system: mesothelioma, renal cell carcinoma and 4T1 breast cancer; details: mouse models, cited from earlier work
[4] = mice, dermal exposure; cited from earlier work
[5] = injected subcutaneously into patients; cited from earlier work
[6] = system: T effector memory cells; details: Fiorenza et al, 2012; cited from earlier work
[7] = pregnant female rabbits, intravenous, gestational Days 6-18; cited from earlier work
[8] = rats, oral, repeated dose up to 6 months; cited from earlier work
[9] = imiquimod; cited from earlier work
[10] = monkeys, oral, repeated dose up to 6 months; cited from earlier work
[11] = Britton-Robinson buffer, FIG. 1
[12] = mice, rats, and monkeys; adverse effects limited to the central nervous system; cited from earlier work
[13] = rats, single subcutaneous dose; cited from earlier work
[14] = EMA toxicology review of Aldara; cited from earlier work
[15] = rabbits, doses of 2000 and 5000 mg/kg under occlusion; cited from earlier work
[16] = system: IL-2 stimulated B cells; details: Glaum et al, 2009; cited from earlier work

With polyethylene glycol 4000 [PEG 4000] as the compound, how does the “Safety Factor (excipient dose from approved drug vs excipient dose from NP)” value [1] read?
The value was 2-fold.

Which “tolerability of subcutaneous dose” value [2] does the source give for CC(C)Cn1cnc2c(N)nc3ccccc3c21 [imiquimod, 1-(2-methylpropyl)imidazo[4,5-c]quinolin-4-amine] here?
The value was “well tolerated”.

And the “overt signs of toxicity (such as weight loss and ruffled fur)” value ([3]; 50 μL injections of 50 μg/mL imiquimod)?
Its value is “not associated with overt signs of toxicity”.

What about the “increase in survival time at maximum inhibition of tumor growth” value ([3]; intratumoral, 50 μL injections of 50 μg/mL imiquimod (p<0.05)) of the same compound?
Its value is greater than 50%.

And the growth of tumor ([3]; only locally (intratumoral) delivered)?
Its growth of tumor is “consistently and significantly retarded the growth of tumor”.

What about the “carcinogenicity: incidence of tumors or non-neoplastic lesions” value [4] of the same compound?
Its value is “no increase in the incidence of tumors or non-neoplastic lesions”.

What about the systemic exposure [5] of the same compound?
Its systemic exposure is “minimal systemic exposure”.

And the “cytotoxic activity of T effector memory cells” value [6]?
Its value is “enhances the cytotoxic activity”.

And the “dose with no treatment related effects on embryofetal toxicity or teratogenicity” value [7]?
The value was 2 mg/kg/day.

What about the “no observed adverse effect level (NOAEL)” value [8] of the same compound?
Its value is 3 mg/kg.

What about the in vivo half-life [9] of the same compound?
The in vivo half-life was “approximately 3 hours”.

What about the “no observed adverse effect level (NOAEL)” value [10] of the same compound?
Its value is 3 mg/kg.

What about the “pH of maximum solubility in aqueous solution” value [11] of the same compound?
Its value is no more than 2.

And the “aqueous solubility above pH 6” value ([11]; above pH 6)?
The value was “sparingly soluble”.

And the single dose toxicity [12]?
The single dose toxicity was “high degree of safety”.

What about the subcutaneous lethal dose [13] of the same compound?
The subcutaneous lethal dose was 20 mg/kg.

What about the effect on fertility [14] of the same compound?
The effect on fertility was “did not affect fertility”.

What about the teratogenicity and genotoxicity [14] of the same compound?
Its teratogenicity and genotoxicity is “neither teratogenic nor genotoxic”.

What about the dermal toxicity [15] of the same compound?
Its dermal toxicity is “no deaths and no signs of toxicity other than mild transient erythema at the application site”.

For CCOCc1nc2c(N)nc3ccccc3c2n1CC(C)(C)O [resiquimod], which “IgM and IgG production by IL-2 stimulated B cells” value [16] is on record?
Its value is “synergistically enhance IgM and IgG production”.

For “2-hydroxypropyl-β-cyclodextrin [HP-β-CD]”, which “Safety Factor (excipient dose from approved drug vs excipient dose from NP)” value [1] is on record?
Its value is 11-fold.
